Data taken from ChEMBL document CHEMBL4602617, “Discovery and optimization of heteroaryl piperazines as potent and selective PI3Kδ inhibitors” (Bioorg Med Chem Lett, 2020).

Experiments:
[1] = Oral bioavailability in dog at 0.5 mg/kg; type: ADME, organism-based, Canis lupus familiaris; conditions: in vivo
[2] = target: Cytochrome P450 3A4 (Homo sapiens, UniProt P08684); experiment: Inhibition of CYP3A4 (unknown origin); type: ADME
[3] = target: Calcium/calmodulin-dependent protein kinase type IV (Homo sapiens, UniProt Q16566); experiment: Inhibition of recombinant full length human full length GST-tagged CAMK4 expressed in Escherichia coli expression system using serine/threonine-13 peptide as substrate incubated for 60 mins in presence of ATP by Z'-LYTE assay
[4] = target: Calcium/calmodulin-dependent protein kinase type II subunit delta (Homo sapiens, UniProt Q13557); experiment: Inhibition of recombinant full length human His-tagged CAMK2D expressed in baculovirus expression system using serine/threonine-04 peptide as substrate incubated for 60 mins in presence of ATP by Z'-LYTE assay
[5] = target: Beta-adrenergic receptor kinase 1 (Homo sapiens, UniProt P25098); experiment: Inhibition of recombinant full length human His-tagged GRK2 expressed in baculovirus expression system using serine/threonine-16 peptide as substrate incubated for 60 mins in presence of ATP by Z'-LYTE assay
[6] = target: G protein-coupled receptor kinase 4 (Homo sapiens, UniProt P32298); experiment: Inhibition of recombinant full length human GST-tagged GRK4 expressed in baculovirus expression system using serine/threonine-16 peptide as substrate incubated for 60 mins in presence of ATP by Z'-LYTE assay
[7] = target: Glycogen synthase kinase-3 alpha (Homo sapiens, UniProt P49840); experiment: Inhibition of recombinant full length GST-tagged human GSK3alpha expressed in baculovirus expression system using Ser/Thr 09 peptide as substrate after 1 hr in presence of ATP by Z'LYTE assay
[8] = target: Vasopressin V1a receptor (Homo sapiens) (UniProt P37288); experiment: Displacement of [125I]phenylacetylTyr(Me)PheGlnAsnArgProArgTyr from recombinant full length human V1A receptor expressed in HEK293 cells at 10 uM after 120 mins by radiometric scintillation analysis relative to control; type: cell-based
[9] = target: Peroxisome proliferator-activated receptor gamma (Homo sapiens) (UniProt P37231); experiment: Displacement of [3H]rosiglitazone from […] human recombinant PPARgamma LBD domain expressed in insect cells at 10 uM measured after 24 hrs by radiometric scintillation analysis relative to control
[10] = organism: Mesocricetus auratus; experiment: Displacement of [3H]glyburide from KATP receptor in HIT-T15 Syrian hamster pancreatic B cell membranes at 10 uM after 120 mins by radiometric scintillation analysis relative to control
[11] = target: Neuropeptide Y receptor type 1 (Homo sapiens) (UniProt P25929); experiment: Displacement of [[125I]peptide YY from full length human SK-N-MC cell-derived Y1 neuropeptide receptor at 10 uM measured after 60 mins by radiometric scintillation analysis relative to control; type: cell-based
[12] = target: Glucocorticoid receptor (Homo sapiens) (UniProt P04150); experiment: Displacement of [3H]dexamethasone from full length human recombinant glucocorticoid receptor expressed in insect cells at 10 uM incubated for 24 hrs by radiometric scintillation analysis relative to control
[13] = target: Endothelin-1 receptor (Homo sapiens) (UniProt P25101); experiment: Displacement of [125I]endothelin-1 from recombinant full length human recombinant ETA receptor expressed in CHO-S cells at 10 uM measured after 120 mins by radiometric scintillation analysis relative to control; type: cell-based
[14] = target: MAO-B (Homo sapiens, UniProt P27338); experiment: Inhibition of recombinant full-length human MAO-B expressed in insect cells at 10 uM using kynuramine as substrate after 60 mins by spectrophotometric analysis relative to control; conditions: probe kynuramine
[15] = target: Serine/threonine-protein kinase Chk2 (Homo sapiens, UniProt O96017); experiment: Inhibition of recombinant human full-length His-tagged CHEK2 expressed in baculovirus expression system using FRET-labeled Ser/Thr 07 peptide as substrate measured after 1 hr in presence of ATP by Z'-lyte assay
[16] = target: Casein kinase II subunit alpha' (Homo sapiens, UniProt P19784); experiment: Inhibition of recombinant human full-length GST-tagged CSNK2A2 expressed in baculovirus expression system using FRET-labeled Ser/Thr 11 peptide as substrate measured after 1 hr in presence of ATP by Z'-lyte assay
[17] = target: Ephrin type-B receptor 4 (Homo sapiens, UniProt P54760); experiment: Inhibition of recombinant human His-tagged EPHB4 (561 to 987 residues) catalytic domain expressed in baculovirus expression system using tyrosine-01 peptide as substrate incubated for 60 mins in presence of ATP by Z'-LYTE assay
[18] = target: Homeodomain-interacting protein kinase 4 (Homo sapiens, UniProt Q8NE63); experiment: Inhibition of recombinant full length human N-terminal GST-tagged HIPK4 expressed in baculovirus expression system using serine/threonine-18 peptide as substrate incubated for 60 mins in presence of ATP by Z'-LYTE assay
[19] = target: Inhibitor of nuclear factor kappa-B kinase subunit epsilon (Homo sapiens, UniProt Q14164); experiment: Inhibition of recombinant human full-length GST-tagged IKBKE expressed in baculovirus expression system using Ser/Thr 11 peptide as substrate measured after 1 hr in presence of ATP by Z'-lyte assay
[20] = target: Tyrosine-protein kinase JAK1 (Homo sapiens, UniProt P23458); experiment: Inhibition of human recombinant GST tagged JAK1 expressed in baculovirus expression system using Tyr6 peptide as substrate measured after 1 hr in presence of ATP by Z'-LYTE assay
[21] = target: Tyrosine-protein kinase Mer (Homo sapiens, UniProt Q12866); experiment: Inhibition of recombinant human GST-tagged MER (578 to 872 residues) expressed in baculovirus expression system using tyrosine-2 peptide as substrate incubated for 60 mins in presence of ATP by Z'-LYTE assay
[22] = target: Platelet-derived growth factor receptor alpha (Homo sapiens, UniProt P16234, V561D); experiment: Inhibition of recombinant human GST-tagged PDGFRalpha V561D mutant cytoplasmic domain expressed in baculovirus expression system using tyrosine-4 peptide as substrate incubated for 60 mins in presence of ATP by Z'-LYTE assay
[23] = target: 3-phosphoinositide-dependent protein kinase 1 (Homo sapiens, UniProt O15530); experiment: Inhibition of full length recombinant His-tagged human PDK1 expressed in baculovirus expression system using Ser/Thr 07 as substrate after 1 hr in presence of ATP by Z'LYTE assay
[24] = target: cGMP-dependent protein kinase 2 (Homo sapiens, UniProt Q13237); experiment: Inhibition of recombinant full length GST-tagged human PKG2 expressed in baculovirus expression system using Ser/Thr 01 as substrate after 1 hr in presence of ATP by Z'-LYTE assay
[25] = target: Serine/threonine-protein kinase PLK1 (Homo sapiens, UniProt P53350); experiment: Inhibition of recombinant full length human His-tagged PLK1 expressed in baculovirus expression system using serine/threonine-16 peptide as substrate incubated for 60 mins in presence of ATP by Z'-LYTE assay
[26] = target: SRSF protein kinase 2 (Homo sapiens, UniProt P78362); experiment: Inhibition of recombinant full length human GST-tagged SRPK2 expressed in baculovirus expression system using serine/threonine-07 peptide as substrate incubated for 60 mins in presence of ATP by Z'-LYTE assay

Chain of Homeodomain-interacting protein kinase 4 (Q8NE63 whole entry): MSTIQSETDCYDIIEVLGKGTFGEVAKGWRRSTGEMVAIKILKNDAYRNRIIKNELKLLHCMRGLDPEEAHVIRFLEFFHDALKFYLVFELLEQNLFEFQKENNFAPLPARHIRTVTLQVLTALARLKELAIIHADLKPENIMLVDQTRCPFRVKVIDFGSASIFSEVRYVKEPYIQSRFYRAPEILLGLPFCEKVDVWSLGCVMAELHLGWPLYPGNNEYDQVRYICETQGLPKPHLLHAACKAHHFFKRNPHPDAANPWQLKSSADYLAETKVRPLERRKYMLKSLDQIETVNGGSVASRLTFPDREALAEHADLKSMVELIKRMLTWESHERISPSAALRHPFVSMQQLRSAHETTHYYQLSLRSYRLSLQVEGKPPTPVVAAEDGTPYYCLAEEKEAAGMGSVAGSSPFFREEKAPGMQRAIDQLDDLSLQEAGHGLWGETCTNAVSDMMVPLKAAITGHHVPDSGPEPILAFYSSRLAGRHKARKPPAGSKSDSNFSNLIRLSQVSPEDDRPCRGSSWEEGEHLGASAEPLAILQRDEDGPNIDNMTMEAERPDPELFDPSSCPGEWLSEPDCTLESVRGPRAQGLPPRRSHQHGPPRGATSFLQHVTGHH
Chain of G protein-coupled receptor kinase 4 (P32298 whole entry): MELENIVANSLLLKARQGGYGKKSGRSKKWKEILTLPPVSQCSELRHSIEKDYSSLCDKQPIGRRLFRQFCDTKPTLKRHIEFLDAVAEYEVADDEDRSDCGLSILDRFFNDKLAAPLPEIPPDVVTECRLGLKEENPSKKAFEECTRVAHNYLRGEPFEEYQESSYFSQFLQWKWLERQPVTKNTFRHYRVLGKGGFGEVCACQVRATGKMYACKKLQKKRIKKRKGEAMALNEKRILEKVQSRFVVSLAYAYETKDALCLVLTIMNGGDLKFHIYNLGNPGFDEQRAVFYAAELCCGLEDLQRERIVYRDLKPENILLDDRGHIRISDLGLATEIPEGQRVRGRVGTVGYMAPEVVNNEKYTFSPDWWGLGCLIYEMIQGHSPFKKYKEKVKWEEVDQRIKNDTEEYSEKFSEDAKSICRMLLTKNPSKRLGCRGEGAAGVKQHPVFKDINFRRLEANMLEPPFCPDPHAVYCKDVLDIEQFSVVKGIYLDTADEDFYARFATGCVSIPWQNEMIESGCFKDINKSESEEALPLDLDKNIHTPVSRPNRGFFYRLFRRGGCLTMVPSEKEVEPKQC
Chain of Inhibitor of nuclear factor kappa-B kinase subunit epsilon (Q14164 whole entry): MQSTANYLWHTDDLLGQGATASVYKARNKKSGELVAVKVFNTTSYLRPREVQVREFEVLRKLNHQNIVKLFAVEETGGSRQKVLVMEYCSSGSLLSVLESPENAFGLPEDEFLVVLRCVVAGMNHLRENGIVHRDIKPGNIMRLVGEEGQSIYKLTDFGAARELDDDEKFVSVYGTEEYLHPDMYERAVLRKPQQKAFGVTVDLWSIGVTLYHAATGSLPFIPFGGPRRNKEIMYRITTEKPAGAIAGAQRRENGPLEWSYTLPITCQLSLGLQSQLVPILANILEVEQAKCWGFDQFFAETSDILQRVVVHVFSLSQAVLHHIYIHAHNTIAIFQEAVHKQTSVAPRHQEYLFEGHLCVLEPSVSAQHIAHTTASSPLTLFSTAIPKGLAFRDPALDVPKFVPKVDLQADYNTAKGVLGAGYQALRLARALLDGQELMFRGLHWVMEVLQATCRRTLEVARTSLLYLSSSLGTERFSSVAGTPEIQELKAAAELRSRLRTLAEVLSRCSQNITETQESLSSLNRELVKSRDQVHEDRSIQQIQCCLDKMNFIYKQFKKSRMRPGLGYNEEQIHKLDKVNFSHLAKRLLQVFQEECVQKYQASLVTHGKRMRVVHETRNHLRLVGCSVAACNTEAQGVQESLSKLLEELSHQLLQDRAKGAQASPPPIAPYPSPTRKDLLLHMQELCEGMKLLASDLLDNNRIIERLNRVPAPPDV
Chain of Tyrosine-protein kinase JAK1 (P23458 whole entry, the tested form may be a part): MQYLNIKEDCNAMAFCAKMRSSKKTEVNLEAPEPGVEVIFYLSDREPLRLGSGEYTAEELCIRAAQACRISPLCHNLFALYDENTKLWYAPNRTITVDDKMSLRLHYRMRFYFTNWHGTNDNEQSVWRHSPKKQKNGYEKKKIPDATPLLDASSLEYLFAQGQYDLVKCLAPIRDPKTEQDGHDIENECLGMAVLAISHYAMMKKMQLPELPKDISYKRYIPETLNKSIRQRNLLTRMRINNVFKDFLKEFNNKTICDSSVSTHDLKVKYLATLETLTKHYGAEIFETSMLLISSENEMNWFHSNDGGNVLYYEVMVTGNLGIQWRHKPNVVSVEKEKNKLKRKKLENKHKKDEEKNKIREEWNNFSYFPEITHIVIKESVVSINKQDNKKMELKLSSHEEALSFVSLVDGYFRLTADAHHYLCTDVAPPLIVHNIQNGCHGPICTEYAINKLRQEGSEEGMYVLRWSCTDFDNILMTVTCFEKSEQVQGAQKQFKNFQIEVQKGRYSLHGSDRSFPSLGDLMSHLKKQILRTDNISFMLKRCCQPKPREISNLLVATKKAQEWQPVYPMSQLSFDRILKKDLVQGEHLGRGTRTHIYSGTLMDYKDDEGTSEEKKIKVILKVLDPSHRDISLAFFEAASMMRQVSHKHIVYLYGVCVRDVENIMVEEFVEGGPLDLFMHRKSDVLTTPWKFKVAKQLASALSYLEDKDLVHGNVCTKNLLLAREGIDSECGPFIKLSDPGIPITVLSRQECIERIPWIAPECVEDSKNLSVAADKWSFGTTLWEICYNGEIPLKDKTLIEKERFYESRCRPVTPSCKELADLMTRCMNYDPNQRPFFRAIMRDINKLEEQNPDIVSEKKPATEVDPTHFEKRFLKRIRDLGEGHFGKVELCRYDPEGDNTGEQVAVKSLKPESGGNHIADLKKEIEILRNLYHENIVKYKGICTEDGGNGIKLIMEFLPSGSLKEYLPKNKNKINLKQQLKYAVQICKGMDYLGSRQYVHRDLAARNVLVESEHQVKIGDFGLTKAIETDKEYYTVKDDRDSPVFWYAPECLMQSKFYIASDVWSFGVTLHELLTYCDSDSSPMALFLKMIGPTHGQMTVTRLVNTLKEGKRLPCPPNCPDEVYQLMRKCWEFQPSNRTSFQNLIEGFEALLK
Chain of Ephrin type-B receptor 4 (P54760 whole entry, the tested form may be a part): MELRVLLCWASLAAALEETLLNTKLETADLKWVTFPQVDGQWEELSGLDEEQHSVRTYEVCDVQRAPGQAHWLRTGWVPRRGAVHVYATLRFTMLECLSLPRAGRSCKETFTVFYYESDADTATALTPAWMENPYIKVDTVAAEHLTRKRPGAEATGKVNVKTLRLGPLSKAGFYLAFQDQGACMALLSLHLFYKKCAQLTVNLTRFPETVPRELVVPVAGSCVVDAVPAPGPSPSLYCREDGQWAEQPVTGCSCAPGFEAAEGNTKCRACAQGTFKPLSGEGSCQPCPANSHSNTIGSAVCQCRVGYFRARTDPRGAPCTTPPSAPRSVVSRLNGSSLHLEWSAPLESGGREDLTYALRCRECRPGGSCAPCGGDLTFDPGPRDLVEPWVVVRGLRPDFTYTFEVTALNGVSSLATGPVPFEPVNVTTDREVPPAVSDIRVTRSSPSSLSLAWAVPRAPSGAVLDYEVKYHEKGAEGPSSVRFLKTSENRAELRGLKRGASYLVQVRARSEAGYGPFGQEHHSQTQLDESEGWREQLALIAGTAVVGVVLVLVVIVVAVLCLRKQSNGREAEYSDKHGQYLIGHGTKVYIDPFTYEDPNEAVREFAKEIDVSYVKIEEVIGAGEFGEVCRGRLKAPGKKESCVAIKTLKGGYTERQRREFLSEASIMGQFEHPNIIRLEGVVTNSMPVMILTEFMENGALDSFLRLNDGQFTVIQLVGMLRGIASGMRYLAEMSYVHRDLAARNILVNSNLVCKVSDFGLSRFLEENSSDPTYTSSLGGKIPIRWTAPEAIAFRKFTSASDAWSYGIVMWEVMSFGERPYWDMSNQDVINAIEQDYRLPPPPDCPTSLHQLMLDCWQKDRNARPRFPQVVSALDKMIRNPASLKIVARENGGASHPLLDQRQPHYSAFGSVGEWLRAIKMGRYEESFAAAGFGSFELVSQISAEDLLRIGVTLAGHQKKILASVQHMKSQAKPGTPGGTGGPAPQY
Chain of cGMP-dependent protein kinase 2 (Q13237 whole entry): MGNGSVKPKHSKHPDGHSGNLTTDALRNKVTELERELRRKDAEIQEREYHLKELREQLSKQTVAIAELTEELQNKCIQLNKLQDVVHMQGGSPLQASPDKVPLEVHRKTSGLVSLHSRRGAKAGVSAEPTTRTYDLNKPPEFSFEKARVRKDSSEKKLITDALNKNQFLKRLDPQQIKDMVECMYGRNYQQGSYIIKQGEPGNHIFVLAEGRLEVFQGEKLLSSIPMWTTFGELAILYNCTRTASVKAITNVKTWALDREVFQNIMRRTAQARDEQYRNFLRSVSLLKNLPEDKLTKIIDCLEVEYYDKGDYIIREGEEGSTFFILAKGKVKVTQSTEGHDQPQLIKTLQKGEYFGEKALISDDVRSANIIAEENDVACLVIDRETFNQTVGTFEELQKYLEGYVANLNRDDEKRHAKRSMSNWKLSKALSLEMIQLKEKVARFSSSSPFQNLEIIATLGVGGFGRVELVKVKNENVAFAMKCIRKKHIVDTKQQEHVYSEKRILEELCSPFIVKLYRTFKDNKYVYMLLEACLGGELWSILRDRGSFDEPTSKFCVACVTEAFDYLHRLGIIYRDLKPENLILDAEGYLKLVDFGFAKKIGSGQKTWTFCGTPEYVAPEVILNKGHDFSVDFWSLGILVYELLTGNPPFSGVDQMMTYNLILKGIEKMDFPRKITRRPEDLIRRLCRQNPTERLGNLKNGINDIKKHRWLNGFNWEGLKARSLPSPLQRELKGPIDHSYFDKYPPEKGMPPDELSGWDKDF

C[C@@H]1C[C@H]1C(=O)N1CCN(c2cnc(C#N)c(-c3cnn(C)c3)n2)C[C@H]1C
bioavailability [1]: 100% | IC50 [2]: > 50 µM | IC50 [3]: > 100 µM | IC50 [4]: > 100 µM | IC50 [5]: > 100 µM | IC50 [6]: 34.7 µM | IC50 [7]: 26.1 µM | inhibition [8]: -3% | inhibition [9]: 7% | inhibition [10]: -1% | inhibition [11]: 10% | inhibition [12]: 7% | inhibition [13]: -9% | inhibition at 1 h, 10 µM [14]: 11% | IC50 [15]: > 100 µM | IC50 [16]: > 100 µM | IC50 [17]: > 100 µM | IC50 [18]: > 100 µM | IC50 [19]: > 100 µM | IC50 [20]: > 100 µM | IC50 [21]: > 100 µM | IC50 [22]: > 100 µM | IC50 [23]: > 100 µM | IC50 [24]: > 100 µM | IC50 [25]: > 100 µM | IC50 [26]: > 100 µM
